Test results taken from publication PMC6204753, “Non-native autoinducer analogs capable of modulating the SdiA quorum sensing receptor in Salmonella enterica serovar Typhimurium” (Beilstein Journal of Organic Chemistry, 2018).

Molecular target: SdiA (Salmonella enterica subsp. enterica serovar Typhimurium, UniProt O66040)
Assay: S. Typhimurium-pJNS25 SdiA reporter, competitive antagonism against 10 nM L-OOHL
Format: cell-based
Conditions: for Antagonism 1 μM Inhibition (%): 1 μM compound; for Antagonism 1 μM Inhibition (%) / Antagonism 100 μM Inhibition (%): average ± STD, change in activity from 10 nM 2 (OOHL); for Antagonism 100 μM Inhibition (%): 100 μM compound
Excerpt: Biological assays for SdiA activity. Cell-based reporter strains that rely on detecting the transcriptional activity of LuxR-type receptors are commonly used to assess the activity of exogenous ligands. We used the S. Typhimurium-pJNS25 reporter strain constructed by Smith and Ahmer and also used by Janssens et al. to examine SdiA activity. This strain naturally produces SdiA and contains a reporter plasmid with the promoter region for srgE fused to the luxABCDE operon of V. fischeri (see Experimental section for details of all strains and plasmids). SdiA activity is thus reported by the production of luciferase and resulting bioluminescence. We also prepared an SdiA reporter in E. coli (JLD271-pJN105SE-pSC11SE) to examine S. Typhimurium SdiA activity in an alternate background and with a different reporter gene output. […] This reporter construct uses an arabinose inducible promoter to produce S. Typhimurium SdiA and the promoter region for srgE fused to lacZ to report SdiA activity. SdiA activity is then measured using standard β-galactosidase assays. In both reporter strains, signal was normalized to the difference between the positive control (10 μM OOHL) and the negative control (1% DMSO; no compound).
Salmonella SdiA reporter assay. S. Typhimurium-pJNS25 was grown 16–18 h overnight in LB, diluted 1:100 in fresh LB medium, and then incubated for 6 h at 37 °C with shaking at 200 rpm in the presence of compounds (1% DMSO). […] All compounds were screened at 100 μM and 1 μM in triplicate in agonism and antagonism assays. […] Dose–response analyses were performed by preparing dilutions of compounds in DMSO and testing each concentration in the agonism or antagonism assays. Competition dose–response assays (data in Figure 5) were performed in the same manner as the antagonism assays, except instead of OOHL being added to the subculture, the antagonist being tested was added. Non-linear regression curve fits were generated using GraphPad Prism software (version 6) using variable slope (four parameter) dose–response analysis.

Sequence of SdiA (O66040 entry or part of it): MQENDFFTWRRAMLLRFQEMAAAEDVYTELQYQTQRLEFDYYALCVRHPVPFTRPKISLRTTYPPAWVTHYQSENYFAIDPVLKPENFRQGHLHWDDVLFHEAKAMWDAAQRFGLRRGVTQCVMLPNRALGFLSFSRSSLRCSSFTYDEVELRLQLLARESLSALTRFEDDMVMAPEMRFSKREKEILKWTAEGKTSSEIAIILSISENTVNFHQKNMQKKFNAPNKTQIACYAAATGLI

SMILES | Antagonism 1 μM Inhibition (%) | Antagonism 100 μM Inhibition (%) | SdiA antagonism (in words) (S. Typhimurium reporter)
O=C(Cc1ccccc1)N[C@H]1CCSC1=O [F9] | -1 ± 4% | -13 ± 1% | –
O=C(Cc1ccc(Br)cc1)N[C@H]1CCSC1=O [F10] | 8 ± 12% | -3 ± 7% | –
O=C(Cc1cccc([N+](=O)[O-])c1)NC1CCCC1 [F18] | 4 ± 6% | 15 ± 3% | –
O=C(Cc1cccc([N+](=O)[O-])c1)Nc1ccccc1 [F25] | 20 ± 4% | -2 ± 14% | –
O=C(Cc1cccc([N+](=O)[O-])c1)NCc1cccc([N+](=O)[O-])c1 [F55] | 11 ± 4% | 26 ± 7% | –
CCCCCC(O)CC(=O)N[C@H]1CCOC1=O (stereo partly drawn) [H2] | 8 ± 5% | 12 ± 16% | –
CCCCCCCCCCCCCC(O)CC(=O)N[C@H]1CCOC1=O (stereo partly drawn) [H6] | 15 ± 1% | 15 ± 13% | –
O=C(CC(O)Cc1cccc(I)c1)N[C@H]1CCOC1=O (stereo partly drawn) [H15] | 6 ± 14% | 19 ± 11% | –
O=C(CC(=O)N[C@H]1CCOC1=O)Cc1cccc(Cl)c1 [H23] | 12 ± 8% | 1 ± 9% | –
CCCCCCCCCCCCCC(=O)CC(=O)N[C@H]1CCOC1=O [H25] | 1 ± 13% | -9 ± 15% | –
CCCCCCCCCCCCCC(=O)N[C@H]1CCOC1=O [H26] | 5 ± 14% | 0 ± 8% | failed to inhibit SdiA
O=C(N[C@H]1CCOC1=O)c1ccccc1Br [Q1] | 2 ± 5% | -3 ± 18% | –
O=C(N[C@H]1CCOC1=O)c1cccc(Br)c1 [Q2] | 17 ± 2% | 9 ± 13% | –
O=C(N[C@H]1CCOC1=O)c1ccc(F)cc1 [Q3] | 34 ± 2% | -26 ± 17% | –
O=C(N[C@H]1CCOC1=O)c1ccc(Cl)cc1 [Q4] | 30 ± 4% | -25 ± 15% | –
O=C(N[C@H]1CCOC1=O)c1ccc(I)cc1 [Q5] | 28 ± 10% | -14 ± 10% | –
COc1ccc(C(=O)N[C@H]2CCOC2=O)cc1 [Q6] | 26 ± 18% | -6 ± 14% | –
O=C(N[C@H]1CCOC1=O)c1ccc([N+](=O)[O-])cc1 [Q7] | 28 ± 7% | 20 ± 9% | –
Cc1ccc(C(=O)N[C@H]2CCOC2=O)cc1 [Q8] | 17 ± 3% | 11 ± 3% | –
O=C(N[C@H]1CCOC1=O)c1ccc2c(c1)OCO2 [Q11] | 7 ± 7% | -2 ± 12% | –

SMILES | Antagonism 1 μM Inhibition (%) | Antagonism 100 μM Inhibition (%) | SdiA antagonism (in words) (S. Typhimurium reporter)
O=C(N[C@H]1CCOC1=O)c1ccc(-c2ccccc2)cc1 [Q12] | 20 ± 9% | 26 ± 14% | –
CC(C)(C)OC(=O)Nc1ccc(C(=O)N[C@H]2CCOC2=O)cc1 [Q13] | 19 ± 8% | -14 ± 2% | –
CCOc1ccc(C(=O)N[C@H]2CCOC2=O)cc1 [R1] | 22 ± 6% | 13 ± 8% | –
CCCOc1ccc(C(=O)N[C@H]2CCOC2=O)cc1 [R2] | 16 ± 9% | 11 ± 6% | –
CC(C)Oc1ccc(C(=O)N[C@H]2CCOC2=O)cc1 [R3] | 23 ± 8% | 11 ± 10% | –
CCCCOc1ccc(C(=O)N[C@H]2CCOC2=O)cc1 [R4] | 23 ± 9% | 11 ± 12% | –
CCCCCOc1ccc(C(=O)N[C@H]2CCOC2=O)cc1 [R5] | 10 ± 18% | -1 ± 9% | –
O=C(N[C@H]1CCOC1=O)C1CCCC1 [S4] | 27 ± 11% | -8 ± 11% | –
O=C(N[C@H]1CCOC1=O)C1CCCCC1 [S5] | 19 ± 4% | 13 ± 10% | –
CCCCCCCCCC(=O)CC(=O)N[C@H]1CCOC1=O [compound 1, reference compound] | 2 ± 17% | 15 ± 16% | –
CCCC(=O)CC(=O)N[C@H]1CCOC1=O [compound 3, reference compound] | 6 ± 16% | 20 ± 2% | –
CCCCCCC(=O)N[C@H]1CCOC1=O [compound 4, reference compound] | 26 ± 4% | 16 ± 5% | –
O=C(CC(=O)N[C@H]1CCOC1=O)Cc1ccccc1 [compound 5, reference compound] | 23 ± 9% | 17 ± 3% | –
O=C(CCCc1ccccc1)N[C@H]1CCOC1=O [compound 6, reference compound] | 31 ± 6% | 21 ± 10% | –
O=C(Cc1ccc(Br)cc1)N[C@H]1CCOC1=O [compound 7, reference compound] | 26 ± 9% | 21 ± 10% | –
O=C(CCc1ccc(Br)cc1)N[C@H]1CCOC1=O [compound 8, reference compound] | 15 ± 8% | 4 ± 3% | –
O=C(CCc1ccc(C(F)(F)F)cc1)N[C@H]1CCOC1=O [compound 9, reference compound] | 32 ± 10% | 11 ± 16% | –
O=C(CCCOc1ccc(Cl)cc1)N[C@H]1CCOC1=O [compound 10, reference compound] | 9 ± 12% | 5 ± 15% | –
CCCCCCCCCC(=O)CC(=O)Nc1cccc(OC)c1 [compound 14, reference compound] | 22 ± 19% | 12 ± 8% | –
CCCCCCCCCC(=O)CC(=O)NC1CCCCC1=O (stereo not drawn) [compound 15, reference compound] | 16 ± 16% | 13 ± 8% | –
